{
  "source": "patent US20150335679A1",
  "about": "“Methods and Compositions for Treating Malignancies with Dendritic Cells” (Kiromic, LLC, priority 2014, published 2015)",
  "origin": "cited, not measured here",
  "key": {"[1]": {"system": "Tregs; breast tumor-reactive T cells"}, "Treg": {"system": "Treg", "settings": "low-dose"}, "[2]": {"settings": "50 mg orally daily for 3 months"}},
  "note": "Like-named read-outs stand apart in the source and are kept apart here.",
  "data": [
    {"molecule": "O=P1(N(CCCl)CCCl)NCCCO1", "note": "(stereo not drawn) [CYP, cyclophosphamide]", "values": [
      {"measurement": "course of Tregs", "setting": "[1]; [2]", "value": "remained decreased until day 42, returning to pretreatment levels by day 84"},
      {"measurement": "time to reduction of Tregs", "setting": "[1]; [2]", "value": "≤ 14", "unit": "days"},
      {"measurement": "patients with endogenous breast tumor-reactive T cells", "setting": "[1]; day 14, 27% before CYP treatment", "value": 73, "unit": "%"},
      {"measurement": "patients with endogenous breast tumor-reactive T cells", "setting": "[1]; day 42", "value": 80, "unit": "%"},
      {"measurement": "patients with endogenous breast tumor-reactive T cells", "setting": "[1]; day 84", "value": 88, "unit": "%"},
      {"measurement": "Treg number and functionality", "setting": "Treg", "value": "decreases"},
      {"measurement": "rates of disease control", "setting": "advanced solid tumors; all CYP regimens (oral 50 mg/day, single i.v. 1,000 mg, or both) vs adenovirus only", "value": "higher rates of disease control"},
      {"measurement": "decrease of Treg numbers", "setting": "advanced solid tumors; metronomic groups", "value": "most effective in decreasing Treg numbers"},
      {"measurement": "Treg suppressor function", "setting": "Tregs; 250 mg/m^2", "value": "impaired suppressor function"},
      {"measurement": "duration of decreased Treg frequency", "setting": "Tregs; 250 mg/m^2", "value": "decreased Treg frequency up to day 71"},
      {"measurement": "Alpha-fetoprotein-specific T-cell responses", "setting": "Tregs; lower treatment arms", "value": "induced"},
      {"measurement": "absolute and relative frequency of Tregs in the blood of patients", "setting": "Tregs; the two lower doses (150, 250 mg/m^2)", "value": "induced a decrease"}
    ]}
  ]
}
